melting point [°C] | Compound
293 | CC(=O)Nc1ncc(C#Cc2cnn3c(C(F)(F)F)cc(-c4ccc(C(F)(F)F)cc4)nc23)cn1 [Example 245, N-{5-[7-Trifluoromethyl-5-(4-trifluoromethyl-phenyl)-pyrazolo[1,5-a]pyrimidin-3-ylethynyl]-pyrimidin-2-yl}-acetamide]
219 | O=S(=O)(NCCN1CCOCC1)c1ccc(C#Cc2cnn3c(C(F)(F)F)cc(-c4ccc(C(F)(F)F)cc4)nc23)s1 [Example 158, 5-[7-Trifluoromethyl-5-(4-trifluoromethyl-phenyl)-pyrazolo[1,5-a]pyrimidin-3-ylethynyl]-thiophene-2-sulfonic acid (2-morpholin-4-yl-ethyl)-amide]
234 | Cc1cc(-c2cc(C(F)(F)F)n3ncc(C#Cc4cccc(S(N)(=O)=O)c4)c3n2)ccc1Cl [Example 112, 3-[5-(4-Chloro-3-methyl-phenyl)-7-trifluoromethyl-pyrazolo[1,5-a]pyrimidin-3-ylethynyl]-benzenesulfonamide]
216 | Cc1cc(-c2cc(C(F)(F)F)n3ncc(C#Cc4ccc(S(N)(=O)=O)s4)c3n2)ccc1Cl [Example 114, 5-[5-(4-Chloro-3-methyl-phenyl)-7-trifluoromethyl-pyrazolo[1,5-a]pyrimidin-3-ylethynyl]-thiophene-2-sulfonic acid amide]
267 to 269 | N#Cc1cc(-c2ccc(C(F)(F)F)cc2)cn2c(C#Cc3ccc(S(N)(=O)=O)s3)cnc12 [Example 214, 5-[8-Cyano-6-(4-trifluoromethyl-phenyl)-imidazo[1,2-a]pyridin-3-ylethynyl]-thiophene-2-sulfonic acid amide]
147 to 148 | COCCNS(=O)(=O)c1cccc(C#Cc2cnn3c(C(F)F)cc(-c4ccc(C(F)(F)F)cc4)nc23)c1 [Example 146, 3-[7-Difluoromethyl-5-(4-trifluoromethyl-phenyl)-pyrazolo[1,5-a]pyrimidin-3-ylethynyl]-N-(2-methoxy-ethyl)-benzenesulfonamide]
209 to 211 | CCOc1cc(-c2cc(C(F)(F)F)n3ncc(C#Cc4cccc(S(=O)(=O)NC(C)(C)CO)c4)c3n2)ccc1C(F)(F)F [Example 41, 3-[5-(3-Ethoxy-4-trifluoromethyl-phenyl)-7-trifluoromethyl-pyrazolo[1,5-a]pyrimidin-3-ylethynyl]-N-(2-hydroxy-1,1-dimethyl-ethyl)-benzenesulfonamide]
280 to 282 | Cc1cc(-c2ccc(Cl)cc2)nc2c(C#Cc3cnc(N)nc3)cnn12 [Example 316, 5-[5-(4-Chloro-phenyl)-7-methyl-pyrazolo[1,5-a]pyrimidin-3-ylethynyl]-pyrimidin-2-ylamine]
229 to 231 | O=S(=O)(c1ccc(C#Cc2cnn3c(C(F)(F)F)cc(-c4ccc(C(F)(F)F)cc4)nc23)cc1)N1CCOCC1 [Example 122, 3-[4-(Morpholine-4-sulfonyl)-phenylethynyl]-7-trifluoromethyl-5-(4-trifluoromethyl-phenyl)-pyrazolo[1,5-a]pyrimidine]
273 to 274 | NS(=O)(=O)c1ccc(C#Cc2cnn3c(C(F)(F)F)cc(-c4ccc(Cl)c(Cl)c4)nc23)cc1 [Example 94, 4-[5-(3,4-Dichloro-phenyl)-7-trifluoromethyl-pyrazolo[1,5-a]pyrimidin-3-ylethynyl]-benzenesulfonamide]
200 to 202 | OCc1ccc(C#Cc2cnn3c(C(F)(F)F)cc(-c4ccc(C(F)(F)F)cc4)nc23)cc1 [Example 184, {4-[7-Trifluoromethyl-5-(4-trifluoromethyl-phenyl)-pyrazolo[1,5-a]pyrimidin-3-ylethynyl]-phenyl}-methanol]
157 | CC(C)(CO)NS(=O)(=O)c1ccc(C#Cc2cnn3c(C(F)F)cc(-c4ccc(C(F)(F)F)cc4)nc23)s1 [Example 169, 5-[7-Difluoromethyl-5-(4-trifluoromethyl-phenyl)-pyrazolo[1,5-a]pyrimidin-3-ylethynyl]-thiophene-2-sulfonic acid (2-hydroxy-1,1-dimethyl-ethyl)-amide]
255 to 267 | Cc1ccc(C#Cc2cnn3c(C(F)(F)F)cc(-c4ccc(C(F)(F)F)cc4)nc23)cc1S(N)(=O)=O [Example 35, 2-Methyl-5-[7-trifluoromethyl-5-(4-trifluoromethyl-phenyl)-pyrazolo[1,5-a]pyrimidin-3-ylethynyl]-benzenesulfonamide]
272 | CC(C)(CO)NS(=O)(=O)c1ccc(C#Cc2cnn3c(C(F)(F)F)cc(-c4ccc(C(F)(F)F)cc4)nc23)s1 [Example 120, 5-[7-Trifluoromethyl-5-(4-trifluoromethyl-phenyl)-pyrazolo[1,5-a]pyrimidin-3-ylethynyl]-thiophene-2-sulfonic acid (2-hydroxy-1,1-dimethyl-ethyl)-amide]
253 to 255 | CC(C)(C)c1cc(-c2ccc(Cl)cc2)nc2c(C#Cc3ccc(S(N)(=O)=O)s3)cnn12 [Example 307, 5-[7-tert.-Butyl-5-(4-chloro-phenyl)-pyrazolo[1,5-a]pyrimidin-3-ylethynyl]-thiophene-2-sulfonic acid amide]
187 to 188 | FC(F)(F)c1ccc(-c2cc(C(F)(F)F)n3ncc(C#Cc4cccnc4)c3n2)cc1 [Example 3, 3-Pyridin-3-ylethynyl-7-trifluoromethyl-5-(4-trifluoromethyl-phenyl)-pyrazolo[1,5-a]pyrimidine]

melting point [°C] | Compound
294 | Cc1cc(-c2ccc(C(F)(F)F)cc2)cn2c(C#Cc3cncc(S(N)(=O)=O)c3)cnc12 [Example 229, 5-[8-Methyl-6-(4-trifluoromethyl-phenyl)-imidazo[1,2-a]pyridin-3-ylethynyl]-pyridine-3-sulfonic acid amide]
202 to 203 | CC(C)(CO)NS(=O)(=O)c1cnc(C#Cc2cnc3c(C(F)(F)F)cc(-c4ccc(C(F)(F)F)cc4)cn23)s1 [Example 196, 2-[8-Trifluoromethyl-6-(4-trifluoromethyl-phenyl)-imidazo[1,2-a]pyridin-3-ylethynyl]-thiazole-5-sulfonic acid (2-hydroxy-1,1-dimethyl-ethyl)-amide]
162 | CCOc1cccc(-c2cc(C(F)F)n3ncc(C#Cc4ccc(N)nc4)c3n2)c1 [Example 208, 5-[7-Difluoromethyl-5-(3-ethoxy-phenyl)-pyrazolo[1,5-a]pyrimidin-3-ylethynyl]-pyridin-2-ylamine]
> 295 | O=S(=O)(O)c1cnc(C#Cc2cnn3c(C(F)(F)F)cc(-c4ccc(C(F)(F)F)cc4)nc23)s1 [Example 20, 2-[7-Trifluoromethyl-5-(4-trifluoromethyl-phenyl)-pyrazolo[1,5-a]pyrimidin-3-ylethynyl]-thiazole-5-sulfonic acid]
187 | CNc1ccc(C#Cc2cnn3c(C(F)(F)F)cc(-c4ccc(C(F)(F)F)cc4)nc23)cn1 [Example 199, Methyl-{5-[7-trifluoromethyl-5-(4-trifluoromethyl-phenyl)-pyrazolo[1,5-a]pyrimidin-3-ylethynyl]-pyridin-2-yl}-amine]
236 | Cc1cc(-c2ccc(C(F)(F)F)cc2)cn2c(C#Cc3cnc(N)nc3)cnc12 [Example 220, 5-[8-Methyl-6-(4-trifluoromethyl-phenyl)-imidazo[1,2-a]pyridin-3-ylethynyl]-pyrimidin-2-ylamine]
214 to 215 | Cc1cc(-c2ccc(C(F)(F)F)cc2)nc2c(C#Cc3ccc(S(N)(=O)=O)s3)cnn12 [Example 152, 5-[7-Methyl-5-(4-trifluoromethyl-phenyl)-pyrazolo[1,5-a]pyrimidin-3-ylethynyl]-thiophene-2-sulfonic acid amide]
212 | N#Cc1ccc(C#Cc2cnn3c(C(F)(F)F)cc(-c4ccc(C(F)(F)F)cc4)nc23)cn1 [Example 288, 5-[7-Trifluoromethyl-5-(4-trifluoromethyl-phenyl)-pyrazolo[1,5-a]pyrimidin-3-ylethynyl]-pyridine-2-carbonitrile]
239 to 240 | NS(=O)(=O)c1cncc(C#Cc2cnn3c(C(F)(F)F)cc(-c4ccc(C(F)(F)F)cc4)nc23)c1 [Example 5, 5-[7-Trifluoromethyl-5-(4-trifluoromethyl-phenyl)-pyrazolo[1,5-a]pyrimidin-3-ylethynyl]-pyridine-3-sulfonic acid amide]
138 to 140 | FC(F)(F)c1ccc(-c2cc(C(F)(F)F)n3ncc(C#Cc4ccc(C5CC5)nc4)c3n2)cc1 [Example 10, 3-(2-Cyclopropyl-pyridin-5-ylethynyl)-7-trifluoromethyl-5-(4-trifluoromethyl-phenyl)-pyrazolo[1,5-a]pyrimidine]
224 | CC(C)(C)NS(=O)(=O)c1cncc(C#Cc2cnn3c(C(F)(F)F)cc(-c4ccc(C(F)(F)F)cc4)nc23)c1 [Example 17, 5-[7-Trifluoromethyl-5-(4-trifluoromethyl-phenyl)-pyrazolo[1,5-a]pyrimidin-3-ylethynyl]-pyridine-3-sulfonic acid tert-butylamide]
153 | O=S(=O)(NC(CO)CO)c1ccc(C#Cc2cnn3c(C(F)F)cc(-c4cccc(C(F)(F)F)c4)nc23)s1 [Example 265, 5-[7-Difluoromethyl-5-(3-trifluoromethyl-phenyl)-pyrazolo[1,5-a]pyrimidin-3-ylethynyl]-thiophene-2-sulfonic acid (2-hydroxy-1-hydroxymethyl-ethyl)-amide]
290 | N#Cc1cc(-c2ccc(C(F)(F)F)cc2)cn2c(C#Cc3cnc(N)nc3)cnc12 [Example 227, 3-(2-Amino-pyrimidin-5-ylethynyl)-6-(4-trifluoromethyl-phenyl)-imidazo[1,2-a]pyridine-8-carbonitrile]
168 | CC(C)(CO)NS(=O)(=O)c1ccc(C#Cc2cnn3c(C(F)F)cc(-c4cccc(C(F)(F)F)c4)nc23)s1 [Example 170, 5-[7-Difluoromethyl-5-(3-trifluoromethyl-phenyl)-pyrazolo[1,5-a]pyrimidin-3-ylethynyl]-thiophene-2-sulfonic acid (2-hydroxy-1,1-dimethyl-ethyl)-amide]
206 to 210 | NS(=O)(=O)c1ccc(C#Cc2cnc3ccc(-c4ccc(C(F)(F)F)cc4)cn23)s1 [Example 217, 5-[6-(4-Trifluoromethyl-phenyl)-imidazo[1,2-a]pyridin-3-ylethynyl]-thiophene-2-sulfonic acid amide]

— patent US8063048B2, “Acetylenyl-pyrazolo-pyrimidine derivatives” (Hoffmann-La Roche Inc., priority 2005, dated 2011)
